Assay results published in PubChem BioAssay (NCI).
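Method: 48-hour compound exposure of cells in 96-well plates, five concentrations, linear interpolation of endpoints. GI50: concentration for 50% inhibition of growth. TGI is the concentration that stops growth completely.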

What was measured:
Assay in all cases: NCI-60 cell line screen, 48 h
PC-3 prostate = tested on: PC-3 prostate
RPMI-8226 leukemia = tested on: RPMI-8226 leukemia
M14 melanoma = tested on: M14 melanoma
NCI-H226 lung = tested on: NCI-H226 lung
A549 NSCLC = tested on: A549 NSCLC
NCI-H522 lung = tested on: NCI-H522 lung
DU-145 prostate = tested on: DU-145 prostate
BT-549 breast = tested on: BT-549 breast
TK-10 renal = tested on: TK-10 renal
UACC-62 melanoma = tested on: UACC-62 melanoma
U251 CNS = tested on: U251 CNS
SK-MEL-5 melanoma = tested on: SK-MEL-5 melanoma
EKVX NSCLC = tested on: EKVX NSCLC
HS 578T breast = tested on: HS 578T breast
SK-OV-3 ovarian = tested on: SK-OV-3 ovarian
MDA-MB-231 breast = tested on: MDA-MB-231 breast
K-562 leukemia = tested on: K-562 leukemia
NCI-H460 lung = tested on: NCI-H460 lung
SF-295 CNS = tested on: SF-295 CNS
RXF 393 renal = tested on: RXF 393 renal
HCT-116 colon = tested on: HCT-116 colon
SK-MEL-2 melanoma = tested on: SK-MEL-2 melanoma
NCI-H23 lung = tested on: NCI-H23 lung
SW-620 colon = tested on: SW-620 colon
OVCAR-3 ovarian = tested on: OVCAR-3 ovarian
HCT-15 colon = tested on: HCT-15 colon
HOP-92 NSCLC = tested on: HOP-92 NSCLC
MCF7 breast = tested on: MCF7 breast
SR leukemia = tested on: SR leukemia
OVCAR-4 ovarian = tested on: OVCAR-4 ovarian
NCI/ADR-RES ovarian = tested on: NCI/ADR-RES ovarian
OVCAR-5 ovarian = tested on: OVCAR-5 ovarian
ACHN renal = tested on: ACHN renal
CAKI-1 renal = tested on: CAKI-1 renal
HL-60(TB) leukemia = tested on: HL-60(TB) leukemia
T-47D breast = tested on: T-47D breast
OVCAR-8 ovarian = tested on: OVCAR-8 ovarian
LOX IMVI melanoma = tested on: LOX IMVI melanoma
UO-31 renal = tested on: UO-31 renal
MDA-MB-435 = tested on: MDA-MB-435
MOLT-4 leukemia = tested on: MOLT-4 leukemia
IGROV1 ovarian = tested on: IGROV1 ovarian
SNB-75 CNS = tested on: SNB-75 CNS
SF-539 CNS = tested on: SF-539 CNS
CCRF-CEM leukemia = tested on: CCRF-CEM leukemia
HT29 colon = tested on: HT29 colon
SK-MEL-28 melanoma = tested on: SK-MEL-28 melanoma
SF-268 CNS = tested on: SF-268 CNS
HOP-62 NSCLC = tested on: HOP-62 NSCLC
COLO 205 colon = tested on: COLO 205 colon
KM12 colon = tested on: KM12 colon
786-0 renal = tested on: 786-0 renal
MALME-3M melanoma = tested on: MALME-3M melanoma
UACC-257 melanoma = tested on: UACC-257 melanoma
SNB-19 CNS = tested on: SNB-19 CNS

O=C1c2cccnc2C(=O)c2c1c(C(=O)OCCCN1CCCCC1)c1ccccn21
GI50 (PC-3 prostate): < 18.3 nM
TGI (PC-3 prostate): 389 nM
GI50 (RPMI-8226 leukemia): 60.9 nM
GI50 (M14 melanoma): < 10 nM
TGI (M14 melanoma): 38.4 nM
GI50 (NCI-H226 lung): < 10 nM
TGI (NCI-H226 lung): 31.8 nM
GI50 (A549 NSCLC): < 10 nM
TGI (A549 NSCLC): < 18.2 nM
GI50 (NCI-H522 lung): < 10 nM
TGI (NCI-H522 lung): < 15.6 nM
GI50 (DU-145 prostate): < 10 nM
TGI (DU-145 prostate): 1290 nM
GI50 (BT-549 breast): 108 nM
TGI (BT-549 breast): 2780 nM
GI50 (TK-10 renal): 27.2 nM
TGI (TK-10 renal): 4180 nM
GI50 (UACC-62 melanoma): < 10 nM
TGI (UACC-62 melanoma): 47.8 nM
GI50 (U251 CNS): < 10 nM
TGI (U251 CNS): 37.2 nM
GI50 (SK-MEL-5 melanoma): < 14.3 nM
TGI (SK-MEL-5 melanoma): 46.6 nM
GI50 (EKVX NSCLC): 35.1 nM
TGI (EKVX NSCLC): 253 nM
GI50 (HS 578T breast): < 17.8 nM
TGI (HS 578T breast): 132 nM
GI50 (SK-OV-3 ovarian): < 10 nM
TGI (SK-OV-3 ovarian): < 19.9 nM
GI50 (MDA-MB-231 breast): 717 nM
TGI (MDA-MB-231 breast): 13900 nM
GI50 (K-562 leukemia): < 14.4 nM
GI50 (NCI-H460 lung): < 10 nM
TGI (NCI-H460 lung): 12.2 nM
GI50 (SF-295 CNS): 10 nM
TGI (SF-295 CNS): 38.3 nM
GI50 (RXF 393 renal): < 10.8 nM
TGI (RXF 393 renal): < 19 nM
GI50 (HCT-116 colon): < 10.6 nM
TGI (HCT-116 colon): 275 nM
GI50 (SK-MEL-2 melanoma): 30.3 nM
TGI (SK-MEL-2 melanoma): 80.8 nM
GI50 (NCI-H23 lung): < 10 nM
TGI (NCI-H23 lung): 26 nM
GI50 (SW-620 colon): < 10 nM
TGI (SW-620 colon): < 19.2 nM
GI50 (OVCAR-3 ovarian): < 21.8 nM
TGI (OVCAR-3 ovarian): 156 nM
GI50 (HCT-15 colon): 10 nM
TGI (HCT-15 colon): 422 nM
GI50 (HOP-92 NSCLC): 51.2 nM
TGI (HOP-92 NSCLC): 913 nM
GI50 (MCF7 breast): < 10 nM
TGI (MCF7 breast): < 15 nM
GI50 (SR leukemia): < 10 nM
TGI (SR leukemia): > 100000 nM
GI50 (OVCAR-4 ovarian): 280 nM
TGI (OVCAR-4 ovarian): 2000 nM
GI50 (NCI/ADR-RES ovarian): < 10 nM
TGI (NCI/ADR-RES ovarian): 225 nM
GI50 (OVCAR-5 ovarian): 34.4 nM
TGI (OVCAR-5 ovarian): 1830 nM
GI50 (ACHN renal): < 10 nM
TGI (ACHN renal): 17.1 nM
GI50 (CAKI-1 renal): < 10 nM
TGI (CAKI-1 renal): 105 nM
GI50 (HL-60(TB) leukemia): 122 nM
TGI (HL-60(TB) leukemia): 7500 nM
GI50 (T-47D breast): 1100 nM
TGI (T-47D breast): 21500 nM
GI50 (OVCAR-8 ovarian): 10.2 nM
TGI (OVCAR-8 ovarian): 1190 nM
GI50 (LOX IMVI melanoma): < 10 nM
TGI (LOX IMVI melanoma): < 10 nM
GI50 (UO-31 renal): < 10 nM
TGI (UO-31 renal): < 10 nM
GI50 (MDA-MB-435): 14.2 nM
TGI (MDA-MB-435): 41.7 nM
GI50 (MOLT-4 leukemia): 100 nM
TGI (MOLT-4 leukemia): > 36400 nM
GI50 (IGROV1 ovarian): 30.9 nM
TGI (IGROV1 ovarian): 686 nM
GI50 (SNB-75 CNS): < 10 nM
TGI (SNB-75 CNS): < 18.7 nM
GI50 (SF-539 CNS): < 10.6 nM
TGI (SF-539 CNS): 43.5 nM
GI50 (CCRF-CEM leukemia): 70.6 nM
GI50 (HT29 colon): 29.5 nM
TGI (HT29 colon): 665 nM
GI50 (SK-MEL-28 melanoma): 34 nM
TGI (SK-MEL-28 melanoma): 3740 nM
GI50 (SF-268 CNS): < 10 nM
TGI (SF-268 CNS): 207 nM
GI50 (HOP-62 NSCLC): < 10 nM
TGI (HOP-62 NSCLC): 20.3 nM
GI50 (COLO 205 colon): < 12.8 nM
TGI (COLO 205 colon): 30.3 nM
GI50 (KM12 colon): < 18.5 nM
TGI (KM12 colon): 165 nM
GI50 (786-0 renal): < 10 nM
TGI (786-0 renal): < 10 nM
GI50 (MALME-3M melanoma): < 15.8 nM
TGI (MALME-3M melanoma): 68.2 nM
GI50 (UACC-257 melanoma): < 10 nM
TGI (UACC-257 melanoma): 54.9 nM
GI50 (SNB-19 CNS): < 10 nM
TGI (SNB-19 CNS): 1830 nM
